{"source": "patent US20260027122A1", "about": "“USE OF IMIDAZOLINONE DERIVATIVE IN COMBINATION WITH RADIOTHERAPY IN TREATMENT OF TUMORS” (CHENGDU BAIYU PHARMACEUTICAL CO., LTD., priority 2022, published 2026)", "key": {"CT26 transplanted tumor": {"tested_on": "CT26 transplanted tumor", "assay": "Inhibition experiment using BALB/c mouse model bearing CT26 transplanted tumor: tumor volume", "type": "in vivo, BALB/c mice", "conditions": "for Tumor volume (Mean ± SEM): Compound A 20 mpk once a day + IR 2 Gy for 5 consecutive days", "text": "(§1) Female BALB/c mice were selected to constitute a CT26 subcutaneous transplanted tumor model by subcutaneous injection of tumor cells. When the mean tumor volume reached 150-200 mm^3, mice were divided into 3 experimental groups: Vehicle, IR, and (Compound A (20 mpk)+IR), respectively, with 8 animals per group and 24 animals in total for grouping experiments. Each irradiated group was given an irradiation dose of 2 Gy for 5 consecutive days, the administration group was given the corresponding drug once a day for 39 consecutive days, and the Vehicle group was given a vehicle.\n2.1 Tumor volume: during a drug treatment cycle, the long diameter (a) and short diameter (b) of tumor tissue were measured using an electronic vernier caliper to calculate the volume of the tumor (tumor volume=0.5×a×b^2)."}, "[1]": {"assay": "BALB/c mouse model bearing CT26 transplanted tumor: body weight of mice", "type": "in vivo", "conditions": "for Body weight: Compound A 20 mpk once a day + IR 2 Gy for 5 consecutive days, in g (unit assumed)", "text": "as §1\n2.2 Body weight of mice: mice were weighed at least twice a week during a drug treatment cycle."}, "[2]": {"conditions": "compound A in combination with IR"}}, "note": "Marks after values point to notes of the source that are not given here."}
{"molecule": "CCn1c(=O)n(C2CCOCC2)c2nc(Nc3cc(F)c(C(N)=O)cc3C)ncc21", "note": "[Compound A]", "values": [{"measurement": "Tumor volume (Mean ± SEM)", "setting": "CT26 transplanted tumor; D0 (day of grouping)", "value": "168 ± 22", "unit": "mm^3"}, {"measurement": "Tumor volume (Mean ± SEM)", "setting": "CT26 transplanted tumor; D4", "value": "260 ± 41", "unit": "mm^3"}, {"measurement": "Tumor volume (Mean ± SEM)", "setting": "CT26 transplanted tumor; D7", "value": "284 ± 47* mm^3"}, {"measurement": "Tumor volume (Mean ± SEM)", "setting": "CT26 transplanted tumor; D11", "value": "253 ± 56*** mm^3"}, {"measurement": "Tumor volume (Mean ± SEM)", "setting": "CT26 transplanted tumor; D14", "value": "155 ± 28*** mm^3"}, {"measurement": "Tumor volume (Mean ± SEM)", "setting": "CT26 transplanted tumor; D18", "value": "101 ± 33***# mm^3"}, {"measurement": "Tumor volume (Mean ± SEM)", "setting": "CT26 transplanted tumor; D21", "value": "93 ± 34# mm^3"}, {"measurement": "Tumor volume (Mean ± SEM)", "setting": "CT26 transplanted tumor; D25", "value": "169 ± 71# mm^3"}, {"measurement": "Tumor volume (Mean ± SEM)", "setting": "CT26 transplanted tumor; D28", "value": "288 ± 105# mm^3"}, {"measurement": "Tumor volume (Mean ± SEM)", "setting": "CT26 transplanted tumor; D32", "value": "462 ± 148# mm^3"}, {"measurement": "Tumor volume (Mean ± SEM)", "setting": "CT26 transplanted tumor; D35", "value": "605 ± 189# mm^3"}, {"measurement": "Tumor volume (Mean ± SEM)", "setting": "CT26 transplanted tumor; D39", "value": "828 ± 247# mm^3"}, {"measurement": "Effect on the anti-tumor efficacy of radiotherapy", "setting": "CT26 transplanted tumor; [2]", "value": "significantly enhance the anti-tumor efficacy of radiotherapy"}, {"measurement": "Tumor volume compared to the Vehicle and IR groups", "setting": "CT26 transplanted tumor; [2]", "value": "significantly reduced"}, {"measurement": "Body weight", "setting": "[1]; D0", "value": "16.8 ± 0.3"}, {"measurement": "Body weight", "setting": "[1]; D4", "value": "17.1 ± 0.3"}, {"measurement": "Body weight", "setting": "[1]; D7", "value": "16.0 ± 0.2"}, {"measurement": "Body weight", "setting": "[1]; D11", "value": "17.6 ± 0.2"}, {"measurement": "Body weight", "setting": "[1]; D14", "value": "17.9 ± 0.2"}, {"measurement": "Body weight", "setting": "[1]; D18", "value": "18.6 ± 0.2"}, {"measurement": "Body weight", "setting": "[1]; D21", "value": "19.1 ± 0.2"}, {"measurement": "Body weight", "setting": "[1]; D25", "value": "19.4 ± 0.3"}, {"measurement": "Body weight", "setting": "[1]; D28", "value": "19.7 ± 0.2"}, {"measurement": "Body weight", "setting": "[1]; D32", "value": "19.9 ± 0.4"}, {"measurement": "Body weight", "setting": "[1]; D35", "value": "20.1 ± 0.3"}, {"measurement": "Body weight", "setting": "[1]; D39", "value": "19.6 ± 0.3"}, {"measurement": "Tolerance of the animals", "setting": "[1]; compound A in combination with radiotherapy", "value": "good tolerance"}, {"measurement": "Effect on body weight gain of animals", "setting": "[1]; compound A in combination with radiotherapy, to D39", "value": "no effect on body weight gain"}]}
